In PMC10287695, “Non-covalent inhibitors of thioredoxin glutathione reductase with schistosomicidal activity in vivo” (Nature Communications, 2023):
Where two headings read alike, the source gives them in different places.

Legend:
S. mansoni TGR = target: T1, S. mansoni TGR (Schistosoma mansoni, UniProt Q962Y6); assay: S. mansoni TGR enzyme inhibition (DTNB reduction); format: biochemical
T1 construct: made in house
T1 sequence (Q962Y6 1-598): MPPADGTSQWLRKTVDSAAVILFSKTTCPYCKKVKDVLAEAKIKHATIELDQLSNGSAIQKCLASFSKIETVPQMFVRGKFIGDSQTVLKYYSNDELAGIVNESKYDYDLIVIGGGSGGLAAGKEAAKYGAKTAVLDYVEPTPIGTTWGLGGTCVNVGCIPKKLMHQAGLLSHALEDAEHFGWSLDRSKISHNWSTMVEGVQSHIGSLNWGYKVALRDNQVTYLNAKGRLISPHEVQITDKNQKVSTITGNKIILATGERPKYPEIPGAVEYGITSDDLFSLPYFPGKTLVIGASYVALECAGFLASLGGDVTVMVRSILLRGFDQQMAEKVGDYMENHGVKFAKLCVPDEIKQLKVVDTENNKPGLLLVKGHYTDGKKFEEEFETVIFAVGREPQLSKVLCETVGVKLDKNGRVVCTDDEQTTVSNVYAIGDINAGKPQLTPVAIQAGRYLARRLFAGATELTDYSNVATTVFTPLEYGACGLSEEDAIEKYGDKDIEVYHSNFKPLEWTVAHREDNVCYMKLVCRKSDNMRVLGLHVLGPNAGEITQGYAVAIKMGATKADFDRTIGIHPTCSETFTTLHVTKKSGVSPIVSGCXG

S. mansoni adult worms = assay: GSH/GSSG ratio in ex vivo adult worms; format: cell-based; settings: for Decrease (%) in GSH/GSSG ratio: adult worms, 3 h exposure to compounds at 50 μM
Protocol: We assessed GSH/GSSG levels experimentally by treating S. mansoni adult worms with 50 µM of compounds, or respective controls 5 µM Auranofin, 50 µM PZQ or 50 µM MZM and 0.01% DMSO for 3 h. Worm homogenate was prepared by washing three times with PBS to remove residual compounds and ten volumes of ice cold 5% sulfosalicylic acid was added. Worms were manually homogenized on ice using VWR Pellet Mixer Adaptor. The worm suspension was centrifuged at 14000 × g, 4 °C for 10 min and the acid supernatants transferred. An equal volume of ice-cold neutralization buffer (500 mM HEPES, pH 8.0) was added to the acid supernatants.
GSH/GSSG assay was performed by diluting the acid supernatant (5-fold) with ice-cold dilution buffer (250 mM HEPES, pH 7.5). Using white opaque luminescence plate on ice, 25 µl of the diluted worm acid supernatant was added each well in triplicates. Total glutathione lysis reagent and GSSG lysis reagent, which contains alkylating agent N-ethylmaleimide (25 mM) were prepared following manufactures protocol and added to respective wells along with blank for background. Total glutathione lysis reagent or oxidized glutathione lysis reagent (25 µl) was added to respective wells containing worm acid supernatants and the plate was shaken for 5 min. Luciferin generation reagent (LGR) (50 µl) was added to all wells, briefly shaken and incubated at room temperature for 30 min. Luciferin detection reagent (LDR) (100 µl) was added to all wells, briefly shaken and incubated for 15 min at room temperature and the luminescence measured using microplate imager (BioTek Cytation3). GSH/GSSH ratio for DMSO control and compounds were calculated using (Net DMSO total glutathione RFU) – (Net DMSO GSSG RFU)/ (Net DMSO GSSG RFU)/2 and (Net inhibitor total glutathione RFU) – (Net inhibitor GSSG RFU)/ (Net inhibitor GSSG RFU)/2 respectively.

[1] = 15 min preincubation (enzyme + 100 µM NADPH + compound)
[2] = 6 h preincubation (enzyme + 100 µM NADPH + compound), read-out: S. mansoni TGR inhibition (%) at 66.7 µM
[3] = TGR, 15 minutes pre-incubation, compound 15 µM, read-out: % inhibition
[4] = TGR, 15 minutes pre-incubation, compound 30 µM, read-out: % inhibition
[5] = TGR, 6 hours pre-incubation, compound 15 µM, read-out: % inhibition
[6] = TGR, 6 hours pre-incubation, compound 30 µM, read-out: % inhibition
[7] = 1 hr, third data set (r147-159), 0hr 72.45
[8] = 1 hr, third data set (r147-159), 0hr = 100
[9] = 1 hr, third data set, (values given as fraction)
[10] = 3 hr, third data set (r147-159), 0hr 72.45
[11] = 3 hr, third data set (r147-159), 0hr = 100
[12] = 3 hr, third data set, (values given as fraction)
[13] = TGR, 15 minutes pre-incubation, compound 66.7 µM, read-out: % inhibition
[14] = 1 hr, first data set (r117-133), baseline 55.82
[15] = 1 hr, first data set (r117-133), baseline = 100
[16] = 3 hr, first data set (r117-133), baseline 55.82
[17] = 3 hr, first data set (r117-133), baseline = 100
[18] = adult worms ex vivo, 1 hr, relative to 0hr
[19] = TGR, 15 minutes pre-incubation, compound 15 µM
[20] = TGR, 15 minutes pre-incubation, compound 30 µM
[21] = TGR, 15 minutes pre-incubation, compound 66.7 µM
[22] = TGR, 6 hours pre-incubation, compound 15 µM
[23] = TGR, 6 hours pre-incubation, compound 30 µM
[24] = TGR, 6 hours pre-incubation, compound 66.7 µM

| SMILES | IC50 (S. mansoni TGR; [1]) [µM] | inhibition at 66.7 µM (S. mansoni TGR; [2]) [%] | inhibition at 15 µM (S. mansoni TGR; [3]) [%] | inhibition at 30 µM (S. mansoni TGR; [4]) [%] | Reduction (%) in GSH/GSSG ratio (S. mansoni adult worms; 1 hr, third data set) [%] | Ratio GSH/GSSG (S. mansoni adult worms; [7]) | % Ratio GSH/GSSG (S. mansoni adult worms; [8]) [%] | Reduction (%) in GSH/GSSG ratio (S. mansoni adult worms; [9]) [%] | Reduction (%) in GSH/GSSG ratio (S. mansoni adult worms; 3 hr, third data set) [%] | Ratio GSH/GSSG (S. mansoni adult worms; [10]) | % Ratio GSH/GSSG (S. mansoni adult worms; [11]) [%] | Reduction (%) in GSH/GSSG ratio (S. mansoni adult worms; [12]) [%] | Decrease (%) in GSH/GSSG ratio (S. mansoni adult worms) [%] | inhibition at 66.7 µM (S. mansoni TGR; [13]) [%] | Ratio GSH/GSSG (S. mansoni adult worms; [14]) | % Ratio GSH/GSSG (S. mansoni adult worms; [15]) [%] | Ratio GSH/GSSG (S. mansoni adult worms; [16]) | % Ratio GSH/GSSG (S. mansoni adult worms; [17]) [%] | other results |
| --- | --- | --- | --- | --- | --- | --- | --- | --- | --- | --- | --- | --- | --- | --- | --- | --- | --- | --- | --- |
| Cc1oc(-c2ccc3c(c2)OCO3)nc1CN[C@@H]1C[C@@H]2C[C@H]([C@H]1C)C2(C)C [Compound 1] | > 66.7 | 42.1 | 5.86 | 10 | 50.9919 | 35.51 | 49.0081 | 0.5099 | 78.3034 | 15.72 | 21.6966 | 0.78 | 75 | – | – | – | – | – | inhibition at 15 µM (S. mansoni TGR; [5]): 7.78%; inhibition at 30 µM (S. mansoni TGR; [6]): 21.1% |
| CCc1ccccc1-c1nc(CN[C@@H]2C[C@@H]3C[C@H]([C@H]2C)C3(C)C)c(C)o1 [Compound 2] | > 66.7 | 28.7 | 4.35 | 8.85 | – | – | – | – | – | – | – | – | 39 | 12.5 | 34.19 | 61.2531 | 28.99 | 51.9337 | inhibition at 15 µM (S. mansoni TGR; [5]): 12.1%; inhibition at 30 µM (S. mansoni TGR; [6]): 14.6%; inhibition at 66.7 µM (S. mansoni TGR; TGR, 6 hours pre-incubation, compound 66.7 µM, read-out: % inhibition): 28.7% |
| CC(=O)OC[C@H]1O[C@@H]([S-])[C@H](OC(C)=O)[C@@H](OC(C)=O)[C@@H]1OC(C)=O.CCP(CC)CC.[Au+] [AF, auranofin, reference compound] | 0.007 | – | – | – | – | – | – | – | – | – | – | – | 91 | – | 8.34 | 14.9481 | 4.85 | 8.693 | – |
| C[C@@H]1[C@H]2C[C@@H](C[C@H]1NCc1nc3ccccc3n1C1CCCCCC1)C2(C)C [Compound 8] | 10.3 ± 2.01 | – | 57.4 | 62.9 | 13.1896 | 62.89 | 86.8104 | 0.13 | 20.8885 | 57.32 | 79.1115 | 0.21 | 20 | 78.8 | – | – | – | – | % Ratio GSH/GSSG (S. mansoni adult worms; adult worms ex vivo, 1 hr): 52.2584%; Reduction (%) in GSH/GSSG ratio (S. mansoni adult worms; [18]): 14.1592%; Reduction (%) in GSH/GSSG ratio (S. mansoni adult worms; adult worms ex vivo, 1 hr, relative to 0hr, values given as fraction): 0.1416%; % Ratio GSH/GSSG (S. mansoni adult worms; adult worms ex vivo, 3 hr): 52.8952%; Reduction (%) in GSH/GSSG ratio (S. mansoni adult worms; adult worms ex vivo, 3 hr, relative to 0hr, values given as fraction): 0.2338% |
| C#CCN(Cc1nc(-c2ccccc2)oc1C)[C@@H]1C[C@@H]2C[C@H]([C@H]1C)C2(C)C [Compound 6] | – | – | – | 95.8 | 3.259 | 70.09 | 96.7414 | 0.0326 | 8.6517 | 66.18 | 91.3483 | 0.09 | 32 | 96.4 | – | – | – | – | inhibition at 1 µM (S. mansoni TGR; TGR, 15 minutes pre-incubation, compound 1 µM): 26.3%; inhibition at 5 µM (S. mansoni TGR; TGR, 15 minutes pre-incubation, compound 5 µM): 74.8%; times more potent against TGR than human TrxR1 (S. mansoni TGR; ratio of IC50s): at least 25 fold |
| Cc1oc(-c2ccccc2)nc1CN[C@@H]1C[C@@H]2C[C@H]([C@H]1C)C2(C)C [Compound 3] | > 66.7 | 45 | – | – | 60.3556 | 28.72 | 39.6444 | 0.60 | 70.1019 | 21.66 | 29.8981 | 0.70 | 62 | – | 29.86 | 53.4928 | 25.64 | 45.9343 | – |
| C[C@@H]1[C@H]2C[C@@H](C[C@H]1NCc1nc3ccccc3n1C)C2(C)C [C12] | – | – | – | – | – | – | – | – | – | – | – | – | – | – | – | – | – | – | TGR % inhibition (S. mansoni TGR; 15 minutes pre-incubation, 15 µM): 0.03253%; TGR % inhibition (S. mansoni TGR; 15 minutes pre-incubation, 30 µM): 0.1888%; TGR % inhibition (S. mansoni TGR; 15 minutes pre-incubation, 66.7 µM): 0.4169%; TGR % inhibition (S. mansoni TGR; 6 hours pre-incubation, 15 µM): 0.1402%; TGR % inhibition (S. mansoni TGR; 6 hours pre-incubation, 30 µM): 1.567%; TGR % inhibition (S. mansoni TGR; 6 hours pre-incubation, 66.7 µM): 2.052% |
| C[C@@H]1[C@H]2C[C@@H](C[C@H]1NCc1nc3ccccc3n1C)C2(C)C [Compound 12] | – | – | – | – | – | – | – | – | – | – | – | – | – | – | – | – | – | – | S. mansoni TGR IC50 (S. mansoni TGR; [1]): n.i.^e; S. mansoni TGR inhibition (%) at 66.7 µM (S. mansoni TGR; 6 h preincubation (enzyme + 100 µM NADPH + compound)): n.i.^e; % Ratio GSH/GSSG (S. mansoni adult worms; adult worms ex vivo, 1 hr): 59.2209%; Reduction (%) in GSH/GSSG ratio (S. mansoni adult worms; [18]): 1.36%; % Ratio GSH/GSSG (S. mansoni adult worms; adult worms ex vivo, 3 hr): 58.1972% |
| Cc1oc(-c2ccccc2)nc1CN[C@@H]1C[C@@H]2C[C@H]([C@H]1C)C2(C)C [C3] | – | – | – | – | – | – | – | – | – | – | – | – | – | – | – | – | – | – | % inhibition (S. mansoni TGR; [19]): 3.671%; % inhibition (S. mansoni TGR; [20]): 7.41%; % inhibition (S. mansoni TGR; [21]): 17.804%; % inhibition (S. mansoni TGR; [22]): 23.6178%; % inhibition (S. mansoni TGR; [23]): 33.5098%; % inhibition (S. mansoni TGR; [24]): 42.7576% |
| Cc1oc(-c2ccc3ccccc3c2)nc1CNC1CCCCCC1 [C5] | – | – | – | – | – | – | – | – | – | – | – | – | – | – | – | – | – | – | % inhibition (S. mansoni TGR; [19]): 26.4295%; % inhibition (S. mansoni TGR; [20]): 32.2766%; % inhibition (S. mansoni TGR; [21]): 38.9031%; % inhibition (S. mansoni TGR; [22]): 38.3649%; % inhibition (S. mansoni TGR; [23]): 50.2366%; % inhibition (S. mansoni TGR; [24]): 73.0458% |
